Structures can show the parent of a compound that is named as a salt.
Legend:
[1] = system: iron-induced lipid peroxidation in rat brain homogenates; test: Iron-induced lipid peroxidation in rat brain homogenates; details: for LP (%) (10 mM): relative percentage of inhibition (Table 1)
human hepatoma G2 cells = test: Cytotoxicity assay (XTT colorimetric), Hep G2; format: cell-based; details: 48 h of drug exposure
[2] = MTT relative viability, PhTERT-SEAP (hTERT-BJ1) cells; details: human
Procedure: (§2) The tetrazolium reagent (MTT; 3-(4,5-di-methylthiazol)-2,5-diphenyl tetrazolium bromide, USB) was designed to yield a colored formazan upon metabolic reduction by viable cells. Approximately […] cells were plated onto each well of a 96-well plate and incubated in 5% CO2 at 37° C. for 24 h. To assess the in vitro cytotoxicity, each compound was dissolved in DMSO and prepared immediately before the experiments and was diluted into the complete medium before addition to cell cultures. Test compounds were then added to the culture medium for designated various concentrations. After 48 h, an amount of 25 μL of MTT was added to each well, and the samples were incubated at 37° C. for 4 h. A 100 μL solution of lysis buffer containing 20% SDS and 50% N,N-dimethylformamide was added to each well and incubated at 37° C. for another 16 h. The absorbency at 550 nm was measured using an ELISA reader.
(§3) Non small lung cancer cells H1299 (telomerase positive) were grown in RPMI 1640 media supplemented with 10% fetal bovine serum, 100 units/mL penicillin and 100 mg/mL streptomycin in a humidified atmosphere with 5% CO2 at 37° C. The hTERT immortalized hTERT-BJ1 (BD Biosciences Clontech)^39 were grown in DMEM media supplemented with 10% fetal calf serum, 100 units/mL penicillin and 100 mg/mL streptomycin, 1 mM sodium pyruvate, and 4 mM I-arginine in a humidified atmosphere with 5% CO2 at 37° C. Culture media were changed every 3 days. […] The stable clones derived from H1299 or hTERT-BJ1 were cultured using conditions that are similar to their parental cells.

[3] = MTT relative viability, PhTERT-SEAP (H1299) cells; details: human
[4] = system: transcriptional activity of hTERT; test: SEAP reporter assay of hTERT expression, PhTERT-SEAP (H1299); format: cell-based, human; details: for Relative SEAP activity (%) / SEAP/vibility: PhTERT-SEAP(hTERT-H1299)
Method in brief: (§1)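 We treated G418-selected reporter cells with varying drug amounts for 24 h and measured SEAP in the heat-inactivated medium as the rate of 405 nm absorbance increase.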

rat glioma C6 cells = test: Cytotoxicity assay (XTT colorimetric), C6 cells; format: cell-based; details: 48 h of drug exposure
[5] = system: transcriptional activity of hTERT; test: SEAP reporter assay of hTERT expression, PhTERT-SEAP (hTERT-BJ1); format: cell-based, human; details: for Relative SEAP activity (%) / SEAP/vibility: PhTERT-SEAP (hTERT-BJ1)
Method in brief: as §1

[6] = system: hepatitis B virus transfected hepatoma cell lines, HepG 2.2.15 cells; test: Cytotoxicity assay, 2.2.15 cells; format: cell-based, human; details: 48 h of drug exposure
hTERT-BJ1 cells = test: MTT relative viability, PhTERT-SEAP (hTERT-BJ1) cells; details: PhTERT-SEAP (hTERT-BJ1)
Procedure: as §2, §3

[7] = system: non-small-cell lung cancer cells H1299; test: MTT relative viability, PhTERT-SEAP (H1299) cells; details: PhTERT-SEAP(hTERT-H1299)

O=C1O[C@H]([C@@H](O)CO)C(O)=C1O [Ascorbic acid, reference compound]
Inhibition (%) ([1]; 0.01 mM): 10 ± 0.6% | Inhibition (%) ([1]; 0.1 mM): 32 ± 1.2% | Inhibition (%) ([1]; 1 mM): 75 ± 1.5% | Inhibition (%) ([1]; 10 mM): 100% | Inhibition of LP(10 mM) ([1]; 10 mM, mean percent inhibition (Table 3)): >100% | LP (%) (10 mM) ([1]; 10 mM): >100%

O=C1c2cccc(SCCO)c2C(=O)c2cccc(SCCO)c21 [IIb, 1,5-Bis(hydroxyethylthio)-anthraquinone]
IC50 (human hepatoma G2 cells; Homo sapiens, HepG2): 36.4 ± 1.5 µM | viability at 48 h, 2.8 µM [2]: 94 ± 9.3% | viability at 48 h, 28 µM [2]: 49 ± 2.9% | viability at 48 h, 280 µM [2]: 23 ± 2.9% | viability at 48 h, 2.8 µM [3]: 54 ± 4% | viability at 48 h, 28 µM [3]: 29 ± 7% | viability at 48 h, 280 µM [3]: 36 ± 7.2% | activity at 2.8 µM ([4]; Homo sapiens, NCI-H1299, 2.8 μM, H1299, read-out: Relative SEAP activity (%)): 97 ± 15.7% | activity at 28 µM ([4]; Homo sapiens, NCI-H1299, 28 μM, H1299, read-out: Relative SEAP activity (%)): 76 ± 12.4% | activity at 280 µM ([4]; Homo sapiens, NCI-H1299, 280 μM, H1299, read-out: Relative SEAP activity (%)): 45 ± 2.7% | LP (%) (10 mM) ([1]; 10 mM): 16 ± 2.2% | IC50 (rat glioma C6 cells; Rattus norvegicus, C6): 21.5 ± 0.8 µM | activity at 2.8 µM ([5]; Homo sapiens, 2.8 μM, hTERT-BJ1, read-out: Relative SEAP activity (%)): 104 ± 15.7% | activity at 28 µM ([5]; Homo sapiens, 28 μM, hTERT-BJ1, read-out: Relative SEAP activity (%)): 98 ± 10.9% | activity at 280 µM ([5]; Homo sapiens, 280 μM, hTERT-BJ1, read-out: Relative SEAP activity (%)): 71 ± 5%

O=C1c2c(O)ccc(O)c2C(=O)c2c(NCCNCCO)ccc(NCCNCCO)c21 [Mitoxantrone-HCl, reference compound]
Inhibition (%) ([1]; 0.01 mM): 5 ± 0.3% | Inhibition (%) ([1]; 0.1 mM): 22 ± 3.5% | Inhibition (%) ([1]; 1 mM): 54 ± 2.1% | Inhibition (%) ([1]; 10 mM): 100%

O=C(Nc1ccc(NC(=O)c2ccc(F)cc2)c2c1C(=O)c1ccccc1C2=O)c1ccc(F)cc1 [VI30, 1,4-Bis(4-fluorobenzoylamido)-9,10-anthracenedione]
IC50 [6]: > 20 µM | IC50 (human hepatoma G2 cells): > 20 µM | Relative MTT viability (%) (hTERT-BJ1 cells; 2.0 μM): 103 ± 9.0% | Relative MTT viability (%) (hTERT-BJ1 cells; 20 μM): 107 ± 3.1% | Relative MTT viability (%) (hTERT-BJ1 cells; 207 μM): 83 ± 5.3% | Relative MTT viability (%) ([7]; 2.0 μM): 110 ± 5.9% | Relative MTT viability (%) ([7]; 20 μM): 103 ± 6.6% | Relative MTT viability (%) ([7]; 207 μM): 89 ± 6.7% | Relative SEAP activity (%) ([4]; 2.0 μM): 111 ± 3.6% | SEAP/vibility ([4]; 2.0 μM): 1.01 | Relative SEAP activity (%) ([4]; 20 μM): 107 ± 4.8% | SEAP/vibility ([4]; 20 μM): 1.04 | Relative SEAP activity (%) ([4]; 207 μM): 107 ± 9.0% | SEAP/vibility ([4]; 207 μM): 1.20 | IC50 (rat glioma C6 cells): > 20 µM | Relative SEAP activity (%) ([5]; 2.0 μM): 104 ± 16.3% | SEAP/vibility ([5]; 2.0 μM): 1.01 | Relative SEAP activity (%) ([5]; 20 μM): 101 ± 27.6% | SEAP/vibility ([5]; 20 μM): 0.95 | Relative SEAP activity (%) ([5]; 207 μM): 100 ± 14.5% | SEAP/vibility ([5]; 207 μM): 1.20

O=C(Nc1ccc(NC(=O)c2ccc(C(F)(F)F)cc2)c2c1C(=O)c1ccccc1C2=O)c1ccc(C(F)(F)F)cc1 [VI31, 1,4-Bis(4-trifluorobenzoylamido)-9,10-anthracenedione]
IC50 [6]: > 20 µM | IC50 (human hepatoma G2 cells): > 20 µM | Relative MTT viability (%) (hTERT-BJ1 cells; 1.7 μM): 98 ± 4.4% | Relative MTT viability (%) (hTERT-BJ1 cells; 17 μM): 100 ± 3.4% | Relative MTT viability (%) (hTERT-BJ1 cells; 171 μM): 89 ± 3.6% | Relative MTT viability (%) ([7]; 1.7 μM): 98 ± 7.8% | Relative MTT viability (%) ([7]; 17 μM): 100 ± 8.9% | Relative MTT viability (%) ([7]; 171 μM): 77 ± 6.7% | Relative SEAP activity (%) ([4]; 1.7 μM): 110 ± 5.5% | SEAP/vibility ([4]; 1.7 μM): 1.12 | Relative SEAP activity (%) ([4]; 17 μM): 114 ± 5.6% | SEAP/vibility ([4]; 17 μM): 1.14 | Relative SEAP activity (%) ([4]; 171 μM): 96 ± 2.1% | SEAP/vibility ([4]; 171 μM): 1.24 | IC50 (rat glioma C6 cells): > 20 µM | Relative SEAP activity (%) ([5]; 1.7 μM): 100 ± 15.1% | SEAP/vibility ([5]; 1.7 μM): 1.02 | Relative SEAP activity (%) ([5]; 17 μM): 90 ± 16.3% | SEAP/vibility ([5]; 17 μM): 0.90 | Relative SEAP activity (%) ([5]; 171 μM): 103 ± 17.6% | SEAP/vibility ([5]; 171 μM): 1.16

NCC1CC1CCC(=O)Nc1ccc(NC(=O)CCC2CC2CN)c2c1C(=O)c1ccccc1C2=O (stereo not shown) [VI36, 1,4-Bis[2-(aminomnethyl)cyclopropanepropionamido]-9,10-anthracenedione]
IC50 [6]: 3.46 µM | IC50 (human hepatoma G2 cells): 6.46 µM | Relative MTT viability (%) (hTERT-BJ1 cells; 2.0 μM): 103 ± 6.4% | Relative MTT viability (%) (hTERT-BJ1 cells; 20 μM): 92 ± 11.4% | Relative MTT viability (%) (hTERT-BJ1 cells; 204 μM): 104 ± 17.4% | Relative MTT viability (%) ([7]; 2.0 μM): 106 ± 4.1% | Relative MTT viability (%) ([7]; 20 μM): 64 ± 5.1% | Relative MTT viability (%) ([7]; 204 μM): 30 ± 4.7% | Relative SEAP activity (%) ([4]; 2.0 μM): 123 ± 12.4% | SEAP/vibility ([4]; 2.0 μM): 1.16 | Relative SEAP activity (%) ([4]; 20 μM): 112 ± 11.5% | SEAP/vibility ([4]; 20 μM): 1.76 | Relative SEAP activity (%) ([4]; 204 μM): 80 ± 14.5% | SEAP/vibility ([4]; 204 μM): 2.71 | IC50 (rat glioma C6 cells): 2.76 µM | Relative SEAP activity (%) ([5]; 2.0 μM): 91 ± 19.4% | SEAP/vibility ([5]; 2.0 μM): 0.88 | Relative SEAP activity (%) ([5]; 20 μM): 95 ± 14.2% | SEAP/vibility ([5]; 20 μM): 1.03 | Relative SEAP activity (%) ([5]; 204 μM): 65 ± 15.7% | SEAP/vibility ([5]; 204 μM): 0.63

— patent publication US20050009924A1 (priority 2003, published 2005)
